# Measurements: patent publication US20240209389A1, “PLANT HAVING ENHANCED RESISTANCE AGAINST COLORADO POTATO BEETLE AND METHOD FOR PRODUCING SAME, AND METHOD FOR EVALUATING RESISTANCE AGAINST COLORADO POTATO BEETLE IN PLANT” (KANEKA CORPORATION, priority 2020, published 2024)
# Assays:
# [1] = tested on: Sc23ACT; assay: Detection of in vitro enzyme activity of 23ACT (LC-MS of reaction product); type: biochemical, S. chacoense; details: 50 μM substrate, crude extraction fraction of E. coli expressing Sc23ACT, 400 μM acetyl CoA, pH 7.2
# Description: (§1) First, in order to synthesize 23ACT in vitro, the S123ACT gene and the Sc23ACT gene were each linked to a pCold ProS2 (manufactured by Takara Bio Inc.), and were introduced into E. coli BL21 (DE3). The obtained recombinant E. coli was cultured at 37° C. until the OD600 value reached 0.5, was cooled to 15° C., and was left to stand for 30 minutes. IPTG was added thereto so that the final concentration reached 0.1 mM, and the mixture was cultured under shaking at 15° C. for 24 hours, to induce expression of the recombinant protein. Then, the E. coli bodies whose expression was induced were collected, and were suspended in a sonication buffer [50 mM Bis-Tris-HCl (pH 7.0), 150 mM NaCl, 1 mM dithiothreitol, 10% glycerol]. After an ultrasonic crushing machine was used to crush bacterial cells, the mixture was subjected to centrifugal separation, and crude extraction fractions were obtained from the supernatant. A 100 mM Bis-Tris-HCl solution (pH 7.2, containing 400 μM acetyl COA) containing a 50 μM substrate was added to the mixture, and was allowed to react.
# (§2) The obtained reaction product was analyzed through LC-MS (manufactured by Waters, product name: UPLC-ESI-MS ACQUITY). As the column, ACQUITY HSS T3 (1.8 μm φ2.1×100 mm) (manufactured by Waters) was used. In LC analysis, gradient elution was performed using a mobile phase (A: 0.1% formic acid water and B: acetonitrile). The gradient elution was performed under the condition: 0 to 30 minutes, 90% A/10% B to 45% A/55% B; 30 to 31 minutes, 45% A/55% B to 100% B; and maintaining for from 31 to 35 minutes, 100% B.
# [2] = tested on: S123ACT; assay: as above; type: biochemical, S. lycopersicum; details: 50 μM substrate, crude extraction fraction of E. coli expressing S123ACT, 400 μM acetyl CoA, pH 7.2
# Description: as §1, §2
# [3] = tested on: St23ACT; assay: Detection of in vitro enzyme activity of St23ACT (LC-MS of reaction product); type: biochemical, S. tuberosum; details: same method as Example 4, crude extraction fraction of E. coli expressing St23ACT
# Description: as §1
# The obtained reaction product was analyzed through LC-MS (manufactured by Waters, product name: UPLC-ESI-MS ACQUITY). As the column, ACQUITY HSS T3 (1.8 μm φ2.1×100 mm) (manufactured by Waters) was used. […]
# The St23ACT gene identified in Example 12 was analyzed in the same method described in Example 4. […]
# [4] = tested on: S123DOX; assay: Detection of in vitro enzyme activity of 23DOX (LC-MS of reaction product); type: biochemical, S. lycopersicum; details: 50 μM substrate, crude extraction fraction of E. coli expressing S123DOX, 2-oxoglutaric acid, sodium ascorbate, FeSO4, pH 7.2
# Description: (§3) First, in order to synthesize 23DOX in E. coli, the S123DOX gene and the Sc23DOX gene were each linked to a pCold ProS2 vector (manufactured by Takara Bio Inc.), and were introduced into E. coli BL21 (DE3). The obtained recombinant E. coli was cultured at 37° C. until the OD600 value reached 0.5, was cooled to 15° C., and was left to stand for 30 minutes. IPTG was added thereto so that the final concentration reached 0.1 mM, and the mixture was cultured under shaking at 15° C. for 24 hours, to induce expression of the recombinant protein.
# (§4) Then, the E. coli bodies whose expression was induced were collected, and were suspended in a sonication buffer [50 mM Bis-Tris-HCl (pH 7.0), 150 mM NaCl, 1 mM dithiothreitol, 10% glycerol]. After an ultrasonic crushing machine was used to crush bacterial cells, the mixture was subjected to centrifugal separation, and crude extraction fractions were obtained from the supernatant. A 100 mM Bis-Tris-HCl solution (pH 7.2, containing 5 mM 2-oxoglutaric acid, 10 mM sodium ascorbate, and 200 μM FeSO4) containing a 50 μM substrate was added to the mixture, and was allowed to react.
# (§5) The obtained reaction product was analyzed through LC-MS (manufactured by Waters, product name: UPLC-ESI-MS ACQUITY). As the column, ACQUITY HSS T3 1.8 μm φ 2.1×100 mm (manufactured by Waters) was used. […]
# [5] = tested on: Sc23DOX; assay: as above; type: biochemical, S. chacoense; details: 50 μM substrate, crude extraction fraction of E. coli expressing Sc23DOX, 2-oxoglutaric acid, sodium ascorbate, FeSO4, pH 7.2
# Description: as §3, §4, §5
# [6] = tested on: St23DOX; assay: Detection of in vitro enzyme activity of St23DOX (LC-MS of reaction product); type: biochemical, S. tuberosum; details: same method as Example 3, crude extraction fraction of E. coli expressing St23DOX
# Description: as §3, §4
# The obtained reaction product was analyzed through LC-MS (manufactured by Waters, product name: UPLC-ESI-MS ACQUITY). […]
# The St23DOX gene identified in Example 10 was analyzed in the same method described in Example 3. […]
Molecule,acetylation of the hydroxy group of position 23 of the substrate (reaction product) [1],acetylation of the hydroxy group of position 23 of the substrate (reaction product) [2],acetylation of the hydroxy group of position 23 of the substrate (reaction product) [3],introduction of a hydroxy group to position 23 of the substrate (reaction product) [4],introduction of a hydroxy group to position 23 of the substrate (reaction product) [5],introduction of a hydroxy group to position 23 of the substrate (reaction product) [6]
23 hydroxy tomatine,a product to which an acetoxy group was introduced at position 23 was obtained,a product to which an acetoxy group was introduced at position 23 was obtained,a product to which an acetoxy group was introduced at position 23 was obtained,–,–,–
"CC1CC(O)C2C(C)C3C(CC4C5CC=C6CC(OC7OC(CO)C(OC8OC(C)C(O)C(O)C8O)C(O)C7OC7OC(C)C(O)C(O)C7O)CCC6(C)C5CCC43C)N2C1 [leptinine I, 3β-[2-O,4-O-bis(α-L-rhamnopyranosyl)-β-D-glucopyranosyloxy]solanid-5-en-23β-ol]",a new reaction product was not obtained,a new reaction product was not obtained,–,–,–,–
"C[C@H]1C[C@H](O)[C@@H]2[C@@H](C)[C@H]3[C@H](C[C@H]4[C@@H]5CC=C6C[C@@H](O[C@@H]7O[C@H](CO)[C@H](O)[C@H](O[C@@H]8O[C@H](CO)[C@@H](O)[C@H](O)[C@H]8O)[C@H]7O[C@@H]7O[C@@H](C)[C@H](O)[C@@H](O)[C@H]7O)CC[C@]6(C)[C@H]5CC[C@]34C)N2C1 [leptinine II, 3β-[(3-O-β-D-glucopyranosyl-2-O-α-L-rhamnopyranosyl-β-D-galactopyranosyl)oxy]solanid-5-en-23β-ol]",a new reaction product was not obtained,a new reaction product was not obtained,–,–,–,–
C[C@H]1CC[C@@H]2[C@@H](C)[C@H]3[C@H](C[C@H]4[C@@H]5CC=C6C[C@@H](O[C@@H]7O[C@H](CO)[C@H](O)[C@H](O[C@@H]8O[C@H](CO)[C@@H](O)[C@H](O)[C@H]8O)[C@H]7O[C@@H]7O[C@@H](C)[C@H](O)[C@@H](O)[C@H]7O)CC[C@]6(C)[C@H]5CC[C@]34C)N2C1 [α-solanine],–,–,–,a new reaction product was not obtained,a new reaction product was not obtained,–
C[C@H]1CC[C@]2(NC1)O[C@H]1C[C@H]3[C@@H]4CC[C@H]5C[C@@H](O[C@@H]6O[C@H](CO)[C@H](O[C@@H]7O[C@H](CO)[C@@H](O)[C@H](O[C@@H]8OC[C@@H](O)[C@H](O)[C@H]8O)[C@H]7O[C@@H]7O[C@H](CO)[C@@H](O)[C@H](O)[C@H]7O)[C@H](O)[C@H]6O)CC[C@]5(C)[C@H]4CC[C@]3(C)[C@H]1[C@@H]2C [α-tomatine],–,–,–,a product to which a hydroxy group was introduced at position 23 was obtained,a product to which a hydroxy group was introduced at position 23 was obtained,a product to which a hydroxy group was introduced at position 23 can be obtained
